Data from ChEMBL document CHEMBL5303765, “Data for DCP probe BAY-7081” (2023).

Columns and labels:
[1] = molecular target: T1, Peripheral plasma membrane protein CASK (Homo sapiens) (UniProt O14936); assay: CASK SGC Tm panel (DSF); conditions: for ΔTm: Compound concentration 10.0 uM
T1 sequence (whole entry): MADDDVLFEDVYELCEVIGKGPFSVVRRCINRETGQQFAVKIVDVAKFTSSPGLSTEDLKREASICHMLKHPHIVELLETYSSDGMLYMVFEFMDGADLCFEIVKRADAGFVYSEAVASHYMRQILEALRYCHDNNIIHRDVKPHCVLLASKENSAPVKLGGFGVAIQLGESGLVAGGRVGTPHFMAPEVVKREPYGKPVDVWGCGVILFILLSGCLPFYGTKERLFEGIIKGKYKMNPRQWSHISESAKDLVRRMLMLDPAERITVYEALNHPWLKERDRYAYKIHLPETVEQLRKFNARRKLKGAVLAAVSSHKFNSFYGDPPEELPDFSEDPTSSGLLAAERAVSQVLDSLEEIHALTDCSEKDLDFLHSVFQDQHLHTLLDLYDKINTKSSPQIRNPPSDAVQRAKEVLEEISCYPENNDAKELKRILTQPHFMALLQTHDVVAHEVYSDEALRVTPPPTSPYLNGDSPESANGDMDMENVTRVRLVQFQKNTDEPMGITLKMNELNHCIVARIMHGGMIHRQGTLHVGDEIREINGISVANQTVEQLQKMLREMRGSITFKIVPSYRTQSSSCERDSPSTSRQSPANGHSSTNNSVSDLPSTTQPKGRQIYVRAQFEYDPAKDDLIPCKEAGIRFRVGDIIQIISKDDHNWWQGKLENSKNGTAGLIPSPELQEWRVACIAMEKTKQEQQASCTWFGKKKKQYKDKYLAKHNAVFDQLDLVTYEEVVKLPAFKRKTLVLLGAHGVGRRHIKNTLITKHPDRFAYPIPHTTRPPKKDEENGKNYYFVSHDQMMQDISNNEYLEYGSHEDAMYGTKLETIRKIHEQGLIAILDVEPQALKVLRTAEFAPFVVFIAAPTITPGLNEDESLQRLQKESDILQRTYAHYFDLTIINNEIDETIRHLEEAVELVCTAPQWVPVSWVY

[2] = molecular target: Mitogen-activated protein kinase 8 (Homo sapiens) (UniProt P45983); assay: MAPK8 SGC Tm panel (DSF); conditions: for ΔTm: Compound concentration 10.0 uM
[3] = molecular target: T2, Tyrosine-protein kinase Mer (Homo sapiens) (UniProt Q12866); assay: MERTK SGC Tm panel (DSF); conditions: for ΔTm: Compound concentration 10.0 uM
T2 sequence (whole entry): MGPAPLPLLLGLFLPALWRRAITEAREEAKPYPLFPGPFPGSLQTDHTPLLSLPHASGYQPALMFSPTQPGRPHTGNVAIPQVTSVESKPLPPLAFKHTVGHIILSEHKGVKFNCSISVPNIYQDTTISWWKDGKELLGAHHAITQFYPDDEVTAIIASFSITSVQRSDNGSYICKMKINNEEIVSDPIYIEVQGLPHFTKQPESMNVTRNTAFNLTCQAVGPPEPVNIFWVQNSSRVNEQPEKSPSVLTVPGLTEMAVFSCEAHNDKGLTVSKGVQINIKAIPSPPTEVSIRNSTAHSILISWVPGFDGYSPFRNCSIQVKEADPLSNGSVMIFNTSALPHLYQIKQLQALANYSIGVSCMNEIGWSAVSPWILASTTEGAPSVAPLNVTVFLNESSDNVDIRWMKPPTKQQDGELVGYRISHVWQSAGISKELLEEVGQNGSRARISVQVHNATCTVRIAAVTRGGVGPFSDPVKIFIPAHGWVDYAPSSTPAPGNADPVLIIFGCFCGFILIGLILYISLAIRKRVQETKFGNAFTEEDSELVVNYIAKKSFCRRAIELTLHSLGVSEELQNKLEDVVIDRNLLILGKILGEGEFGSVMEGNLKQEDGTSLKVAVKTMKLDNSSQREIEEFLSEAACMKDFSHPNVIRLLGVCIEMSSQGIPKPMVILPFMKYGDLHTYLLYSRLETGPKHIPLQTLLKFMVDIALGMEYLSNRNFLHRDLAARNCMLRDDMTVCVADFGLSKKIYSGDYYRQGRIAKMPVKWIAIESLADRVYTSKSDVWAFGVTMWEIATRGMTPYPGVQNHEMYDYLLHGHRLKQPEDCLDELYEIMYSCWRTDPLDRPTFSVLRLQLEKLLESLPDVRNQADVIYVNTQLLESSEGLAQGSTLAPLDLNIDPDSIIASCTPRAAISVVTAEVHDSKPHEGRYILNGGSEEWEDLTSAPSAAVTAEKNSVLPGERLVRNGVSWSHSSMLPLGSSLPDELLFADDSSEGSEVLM

[4] = molecular target: T3, Serine/threonine-protein kinase Nek2 (Homo sapiens) (UniProt P51955); assay: NEK2 SGC Tm panel (DSF); conditions: for ΔTm: Compound concentration 10.0 uM
T3 sequence (whole entry): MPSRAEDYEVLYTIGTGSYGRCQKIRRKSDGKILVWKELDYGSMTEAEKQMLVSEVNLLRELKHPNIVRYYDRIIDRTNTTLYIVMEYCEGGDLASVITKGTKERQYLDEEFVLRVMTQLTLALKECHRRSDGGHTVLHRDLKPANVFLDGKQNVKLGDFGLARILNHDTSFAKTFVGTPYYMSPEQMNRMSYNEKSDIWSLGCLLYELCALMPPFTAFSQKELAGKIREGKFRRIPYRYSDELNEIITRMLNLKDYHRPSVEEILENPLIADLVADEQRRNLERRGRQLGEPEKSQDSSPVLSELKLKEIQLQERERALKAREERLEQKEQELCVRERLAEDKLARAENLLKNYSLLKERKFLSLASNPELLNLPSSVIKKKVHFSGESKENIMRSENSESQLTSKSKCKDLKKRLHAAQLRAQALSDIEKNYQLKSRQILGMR

Mu-type opioid receptor = Mu-type opioid receptor (Homo sapiens, UniProt P35372); conditions: Compound concentration 10.0 uM
[5] = molecular target: Histamine H2 receptor (Homo sapiens) (UniProt P25021); conditions: Compound concentration 10.0 uM
[6] = molecular target: Histamine H3 receptor (Homo sapiens) (UniProt Q9Y5N1); conditions: Compound concentration 10.0 uM
Chain of Histamine H3 receptor (Homo sapiens) (Q9Y5N1 whole entry): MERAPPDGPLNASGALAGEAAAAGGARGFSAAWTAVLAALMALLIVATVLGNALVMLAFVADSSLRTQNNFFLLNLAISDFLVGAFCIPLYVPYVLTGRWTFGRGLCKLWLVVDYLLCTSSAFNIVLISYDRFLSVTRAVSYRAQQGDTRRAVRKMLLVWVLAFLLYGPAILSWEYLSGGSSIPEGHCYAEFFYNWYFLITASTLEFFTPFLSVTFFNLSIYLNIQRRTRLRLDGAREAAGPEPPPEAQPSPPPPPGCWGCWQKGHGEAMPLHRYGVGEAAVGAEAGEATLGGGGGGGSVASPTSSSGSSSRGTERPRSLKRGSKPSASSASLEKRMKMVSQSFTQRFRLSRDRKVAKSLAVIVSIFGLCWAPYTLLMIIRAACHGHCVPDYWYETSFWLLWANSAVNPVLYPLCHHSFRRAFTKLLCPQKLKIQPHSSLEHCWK

Chain of Mu-type opioid receptor (P35372 whole entry): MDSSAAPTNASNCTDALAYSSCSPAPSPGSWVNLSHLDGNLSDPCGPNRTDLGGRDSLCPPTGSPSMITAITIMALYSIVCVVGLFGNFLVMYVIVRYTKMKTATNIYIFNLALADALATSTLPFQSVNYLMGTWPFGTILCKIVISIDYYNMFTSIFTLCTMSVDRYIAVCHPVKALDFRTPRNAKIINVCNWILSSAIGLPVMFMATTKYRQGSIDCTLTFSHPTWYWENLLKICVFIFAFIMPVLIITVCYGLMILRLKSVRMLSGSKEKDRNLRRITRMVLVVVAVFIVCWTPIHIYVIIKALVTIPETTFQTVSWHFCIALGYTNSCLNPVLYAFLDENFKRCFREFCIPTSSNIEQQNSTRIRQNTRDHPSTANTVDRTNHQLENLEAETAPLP
Chain of Mitogen-activated protein kinase 8 (Homo sapiens) (P45983 whole entry): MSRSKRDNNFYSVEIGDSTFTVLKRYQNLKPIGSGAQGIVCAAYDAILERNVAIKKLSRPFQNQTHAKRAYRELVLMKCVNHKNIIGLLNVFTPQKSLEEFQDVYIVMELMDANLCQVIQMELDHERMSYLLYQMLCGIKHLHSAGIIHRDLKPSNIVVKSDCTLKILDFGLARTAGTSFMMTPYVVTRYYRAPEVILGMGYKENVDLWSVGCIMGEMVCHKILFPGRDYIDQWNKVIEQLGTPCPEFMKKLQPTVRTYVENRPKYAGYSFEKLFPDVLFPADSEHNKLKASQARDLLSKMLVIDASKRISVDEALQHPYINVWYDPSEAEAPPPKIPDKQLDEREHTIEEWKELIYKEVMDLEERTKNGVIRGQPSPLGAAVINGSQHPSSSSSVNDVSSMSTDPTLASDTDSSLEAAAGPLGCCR
Chain of Histamine H2 receptor (Homo sapiens) (P25021 whole entry): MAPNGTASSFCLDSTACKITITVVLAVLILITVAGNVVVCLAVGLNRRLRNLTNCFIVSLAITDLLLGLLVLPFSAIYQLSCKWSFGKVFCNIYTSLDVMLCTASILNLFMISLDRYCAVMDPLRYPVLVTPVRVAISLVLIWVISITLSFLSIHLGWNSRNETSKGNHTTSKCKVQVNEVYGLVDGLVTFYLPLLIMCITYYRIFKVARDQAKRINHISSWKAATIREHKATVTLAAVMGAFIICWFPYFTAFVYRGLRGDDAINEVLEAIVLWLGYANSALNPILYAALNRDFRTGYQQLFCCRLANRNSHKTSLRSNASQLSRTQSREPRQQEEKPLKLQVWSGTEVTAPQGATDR

For `CCC[C@@H]1CNCc2c1[nH]c(=O)c(C#N)c2N1CCC2(CC1)CC2`, the delta Tm Staurosporine positive control [1] was 4.28, the ΔTm [1] was -0.0745 and the delta Tm Staurosporine positive control [2] was 7.45. For the same molecule, the ΔTm [2] was -0.293, the delta Tm Staurosporine positive control [3] was 6.4 and the ΔTm [3] was -0.932. For the same molecule, the delta Tm Staurosporine positive control [4] was 4.25, the ΔTm [4] was -1.52 and the inhibition (Mu-type opioid receptor) was 57.9%. For the same molecule, the inhibition [5] was 25.3% and the inhibition [6] was -1.01%.
`CCC[C@H]1CNCc2c1[nH]c(=O)c(C#N)c2N1CCC2(CC1)CC2` showed a delta Tm Staurosporine positive control [1] of 4.28, a ΔTm [1] of -0.242 and a delta Tm Staurosporine positive control [2] of 7.45. It also gave a ΔTm [2] of -0.298, a delta Tm Staurosporine positive control [3] of 6.4 and a ΔTm [3] of -0.991. For the same molecule, the delta Tm Staurosporine positive control [4] was 4.25, the ΔTm [4] was -1.22 and the inhibition (Mu-type opioid receptor) was 26.2%. It also gave an inhibition [5] of 32.7% and an inhibition [6] of -0.66%.
